Source: US20110230430A1, “SAPONIN EXTRACT FROM SAPONARIA SPP. AND USES THEREOF” (NATIONAL RESEARCH COUNCIL OF CANADA, priority 2008, published 2011)

Assays:
[1] = Haemolytic properties of selected saponins; conditions: saponins purified to more than 75%
Excerpt: The haemolytic properties of the various saponins that have been purified to more than 75% have been examined and are provided in Table 39. Haemolytic properties are not directly related to anti-cancer or apoptosis inducing properties of saponins but may be related to toxicity and utility of the saponins for preparation of injectable formulations. Saponins most suitable for injectable formulation will be less haemolytic. QS21, a purified Quillaja saponaria saponin with known haemolytic activity is used as reference.

[2] = system: PC-3 cells; assay: Dual Sensor: MitoCasp Assay in PC-3 prostate cancer cells; type: cell-based, human
Excerpt: (§1) Techniques to assay enzymatic and signaling processes involved in apoptosis have been developed as standard protocols. One example of an early step in apoptosis, is the release of cytochrome C from mitochondria and the activation of caspase-3. Induction of the caspases (a series of cytosolic proteases) is one of the most consistently observed features of apoptosis. Caspases are a family of proteolytic enzymes that transmit the apoptotic signal using a proteolytic cascade. […] Caspases 3 and 7 are effector caspases, central to the caspase cascade pathways. In particular, caspase-3 plays a central role in the process. When caspases are activated, they cleave target proteins; one of the most important of these is poly-(ADP-ribose) polymerase (PARP), which is a protein located in the nucleus. Therefore, assays detecting release of cytochrome C, detecting caspase-3 activity and detecting PARP degradation are effective determinants of apoptosis. The loss of mitochondrial membrane potential is known to occur during apoptosis. To analyze mitochondrial membrane potential, a cationic dye may be used which accumulates in the mitochondria of healthy cells. Collapse of the mitochondrial membrane potential during apoptosis prevents the dye from accumulating in the mitochondria resulting in a decrease in fluorescent intensity that can be detected with flow cytometry. Dual Sensor: MitoCasp™ (Cell Technology) used herein in the Examples is an assay that measures caspase 3/7 activity and cells with decreased mitochondrial membrane potential. In this assay, caspase 3/7 activity is detected using a cell permeable carboxyfluorescein labeled caspase inhibitor, which binds covalently to active caspases 3 and 7. Cells that contain bound inhibitor are detected by an increase in fluorescence when samples are analyzed by flow cytometry.
PC-3 cells (ATCC #CRL-1435) were derived from a prostate adenocarcinoma (Kaighn et al., 1979). They were maintained in RPMI 1640 medium (Gibco) supplemented with 10% fetal bovine serum (Cansera), 100 U/mL penicillin, and 100 μg/mL streptomycin and 0.25 μg/mL amphotericin B. Cultures were maintained in medium at 37° C. with 5% CO2 and 100% relative humidity.
To harvest adherent cells, the existing medium was removed and cells were dissociated with 0.25% (w/v) trypsin-EDTA·4Na in Hank's Balanced Salt Solution (Gibco). To block the proteolytic action of the trypsin, the cells were resuspended in an excess of media containing fetal bovine serum. Cells were transferred to a 15 mL conical centrifuge tube and pelleted by centrifugation at 500×g for 5 min. Cell pellets were resuspended in media, and an aliquot of the cells were seeded into a new flask.
PC-3 cells were seeded in tissue culture flasks with regular growth medium and maintained under normal conditions. […] Following incubation under normal growth conditions for the specified time, cells were washed once with cold phosphate-buffered saline (PBS) (137 mM NaCl, 2.7 mM KCl, 4.3 mM Na2HPO4.7H2O, 1.4 mM KH2PO4) and harvested as previously described. Assays were carried out according to instructions given in kits. All Flow Cytometry was performed using a Coulter Epics XL (Beckman).
(§2) Following centrifugation at 500×g for 5 min, cell pellets were resuspended in PBS at 3.3×10^6 cells/mL. 300 μL cell suspension was mixed with 10 μL each of 30X Mitochondria Membrane Potential Dye and 30X Caspase 3/7 detection reagent. Following incubation for 60 min under normal growth conditions, cells were washed twice with 1× wash buffer and resuspended in 0.5 mL 1× wash buffer. Samples were analyzed by flow cytometry measuring the fluorescence emissions from 515 nm to 530 nm for caspase detection, and 574 nm to 600 nm for mitochondrial membrane potential detection.

[3] = system: PC-3, MDA-MB-231, WiDr, and HT-29 Cells; assay: Order of apoptosis potency across cancer cell lines; design: species or system human; conditions: rank based on responses observed in PC-3, MDA-MB-231, WiDr, and HT-29 Cells; 1 = most active
[4] = system: MDA-MB-231 cells; assay: Dual Sensor: MitoCasp Assay in MDA-MB-231 breast cancer cells; type: cell-based, human
Excerpt: as §1, §2
The MDA-MB-231 cell line (ATCC #HTB-26) was derived from the pleural effusion of a patient with a breast adenocarcinoma (Cailleau et al., 1974). The cells were maintained in RPMI 1640 (Gibco) supplemented with 10% fetal bovine serum (Camera), 100 U/mL penicillin, 100 μg/mL streptomycin and 0.25 μg/mL amphotericin B. Cultures were maintained in medium at 37° C. with 5% CO2 and 100% relative humidity. […]

[5] = 5.0 μM saponin, 36 hours (comparison of saponins)

Segetoside I [PC1464]
HD50 [1]: 17.5 µM | Cells with caspase 3/7 activity ([2]; 1.25 μM PC1464, 36 hr): 9.6% | Cells with decreased mitochondrial membrane potential ([2]; 1.25 μM PC1464, 36 hr): 1.8% | Cells with caspase 3/7 activity ([2]; 1.75 μM PC1464, 26 hr): 8.5% | Cells with decreased mitochondrial membrane potential ([2]; 1.75 μM PC1464, 26 hr): 3.2% | Cells with caspase 3/7 activity ([2]; 2.5 μM PC1464, 36 hr): 15.1% | Cells with decreased mitochondrial membrane potential ([2]; 2.5 μM PC1464, 36 hr): 3.4% | Cells with caspase 3/7 activity ([2]; 3.50 μM PC1464, 26 hr): 40.4% | Cells with decreased mitochondrial membrane potential ([2]; 3.50 μM PC1464, 26 hr): 14.8% | Cells with caspase 3/7 activity ([2]; 5.0 μM PC1464, 36 hr): 57.1% | Cells with decreased mitochondrial membrane potential ([2]; 5.0 μM PC1464, 36 hr): 28.7% | Cells with caspase 3/7 activity ([2]; 5.25 μM PC1464, 26 hr): 49.5% | Cells with decreased mitochondrial membrane potential ([2]; 5.25 μM PC1464, 26 hr): 20.3% | Cells with caspase 3/7 activity ([2]; 7 μM PC1464, 10 hr): 12.2% | Cells with decreased mitochondrial membrane potential ([2]; 7 μM PC1464, 10 hr): 5.1% | Cells with caspase 3/7 activity ([2]; 7 μM PC1464, 20 hr): 40.1% | Cells with decreased mitochondrial membrane potential ([2]; 7 μM PC1464, 20 hr): 21.4% | Cells with caspase 3/7 activity ([2]; 7.00 μM PC1464, 26 hr): 59.4% | Cells with decreased mitochondrial membrane potential ([2]; 7.00 μM PC1464, 26 hr): 24.1% | Increase in cells with decreased mitochondrial membrane potential ([2]; 7 μM PC1464, 30 hours): more than ten fold | Increase in number of cells with caspase 3/7 activity ([2]; 7 μM PC1464, 30 hours): six fold | Cells with caspase 3/7 activity ([2]; 7 μM PC1464, 30 hr): 54.6% | Cells with decreased mitochondrial membrane potential ([2]; 7 μM PC1464, 30 hr): 51.2% | Cells with caspase 3/7 activity ([2]; 10.0 μM PC1464, 36 hr): 59.6% | Cells with decreased mitochondrial membrane potential ([2]; 10.0 μM PC1464, 36 hr): 43.2% | Concentration of greatest effect on apoptosis ([2]; 36 hours): above 5 μM | Induction of apoptosis at concentrations as low as ([2]; 36 hours): 2.5 µM | Concentrations with significant effect on induction of apoptosis ([2]; PC1464 1.75-7 μM, 26 hour): ≥ 3.5 µM | Order of Apoptosis Potency [3]: 4 | Cells with caspase 3/7 activity ([4]; 1.25 μM PC1464, 35 hr): 16.7% | Cells with decreased mitochondrial membrane potential ([4]; 1.25 μM PC1464, 35 hr): 15.6% | Cells with caspase 3/7 activity ([4]; 2.5 μM PC1464, 35 hr): 32.4% | Cells with decreased mitochondrial membrane potential ([4]; 2.5 μM PC1464, 35 hr): 21.2% | Cells with caspase 3/7 activity ([4]; 3.5 μM PC1464, 12 hr): 20.0% | Cells with decreased mitochondrial membrane potential ([4]; 3.5 μM PC1464, 12 hr): 19.9% | Cells with caspase 3/7 activity ([4]; 3.5 μM PC1464, 24 hr): 27.5% | Cells with decreased mitochondrial membrane potential ([4]; 3.5 μM PC1464, 24 hr): 51.5% | Increase in number of cells with caspase 3/7 activity ([4]; 3.5 μM PC1464, 36 hours): two fold | Increase in number of cells with reduced mitochondrial membrane potential ([4]; 3.5 μM PC1464, 36 hours): eight fold | Cells with caspase 3/7 activity ([4]; 3.5 μM PC1464, 36 hr): 29.1% | Cells with decreased mitochondrial membrane potential ([4]; 3.5 μM PC1464, 36 hr): 52.0% | Cells with caspase 3/7 activity ([4]; 5.0 μM PC1464, 35 hr): 53.0% | Cells with decreased mitochondrial membrane potential ([4]; 5.0 μM PC1464, 35 hr): 32.8% | Cells with caspase 3/7 activity [4, 5]: 39.9% | Cells with decreased mitochondrial membrane potential [4, 5]: 13.7% | Cells with caspase 3/7 activity ([4]; 10.0 μM PC1464, 35 hr): 55.7% | Cells with decreased mitochondrial membrane potential ([4]; 10.0 μM PC1464, 35 hr): 39.6% | Concentration of greatest effect on apoptosis ([4]; 35 hours): above 5 μM | Induction of apoptosis at concentrations as low as ([4]; 35 hours): 2.5 µM
